In PubChem BioAssay AID2060501 (Molecular Pharmacology Branch, DTP, NCI, 2025):

Tested on: 282377-053-R-J1-PDC complex spheroids, viability
Assay: Anticancer human tumor 282377-053-R-J1-PDC patient-derived colon adenocarcinoma cell line growth inhibition [GQUAD]
Settings: for IC50: curve of first compound; for viability, T/C: stronger effect = lower value
Procedure, shortened: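 Tumor cells were grown as complex spheroids with HUVEC endothelial cells and mesenchymal stem cells as stroma. G-quadruplex stabilizers were combined with targeted agents over half-log dilutions from near the clinical Cmax, or from 10 microM.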

[1] = second compound 0.0316 µM, first compound 0.0316 µM
[2] = second compound 0.0316 µM, first compound 0.1 µM
[3] = second compound 0.0316 µM, first compound 0.316 µM
[4] = second compound 0.0316 µM, first compound 1 µM
[5] = second compound 0.0316 µM, first compound 3.16 µM
[6] = second compound 0.0316 µM, first compound 10 µM
[7] = second compound 0.1 µM, first compound 0.0316 µM
[8] = second compound 0.1 µM, first compound 0.1 µM
[9] = second compound 0.1 µM, first compound 0.316 µM
[10] = second compound 0.1 µM, first compound 1 µM
[11] = second compound 0.1 µM, first compound 3.16 µM
[12] = second compound 0.1 µM, first compound 10 µM
[13] = second compound 0.316 µM, first compound 0.0316 µM
[14] = second compound 0.316 µM, first compound 0.1 µM
[15] = second compound 0.316 µM, first compound 0.316 µM
[16] = second compound 0.316 µM, first compound 1 µM
[17] = second compound 0.316 µM, first compound 3.16 µM
[18] = second compound 0.316 µM, first compound 10 µM
[19] = second compound 1 µM, first compound 0.0316 µM
[20] = second compound 1 µM, first compound 0.1 µM
[21] = second compound 1 µM, first compound 0.316 µM
[22] = second compound 1 µM, first compound 1 µM
[23] = second compound 1 µM, first compound 3.16 µM
[24] = second compound 1 µM, first compound 10 µM
[25] = second compound 3.16 µM, first compound 0.0316 µM
[26] = second compound 3.16 µM, first compound 0.1 µM
[27] = second compound 3.16 µM, first compound 0.316 µM
[28] = second compound 3.16 µM, first compound 1 µM
[29] = second compound 3.16 µM, first compound 3.16 µM
[30] = second compound 3.16 µM, first compound 10 µM
[31] = second compound 10 µM, first compound 0.0316 µM
[32] = second compound 10 µM, first compound 0.1 µM
[33] = second compound 10 µM, first compound 0.316 µM
[34] = second compound 10 µM, first compound 1 µM
[35] = second compound 10 µM, first compound 3.16 µM
[36] = second compound 10 µM, first compound 10 µM
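Note: spheroids exposed to compounds for 7 days before readout.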
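Throughout, for viability, T/C: percent of vehicle DMSO control viability with 100% = untreated-like growth.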

COc1cccc2c1C(=O)c1c(O)c3c(c(O)c1C2=O)CC(O)(C(=O)CO)CC3OC1CC(N)C(O)C(C)O1 (stereo unspecified) + Cc1[nH]c2ccc(F)cc2c1-c1nc2c3cccnc3c3ncccc3c2[nH]1
IC50 (second compound 0.0316 µM): 1.35 µM
IC50 (second compound 0.1 µM): 1.32 µM
IC50 (second compound 0.316 µM): 1.08 µM
IC50 (second compound 1 µM): 0.991 µM
IC50 (second compound 3.16 µM): 0.222 µM
IC50 (second compound 10 µM): < 0.0316 µM
viability, T/C [1]: 108%
viability, T/C [2]: 99.2%
viability, T/C [3]: 86.4%
viability, T/C [4]: 64.1%
viability, T/C [5]: 18.5%
viability, T/C [6]: 1.16%
viability, T/C [7]: 94.4%
viability, T/C [8]: 114%
viability, T/C [9]: 81.3%
viability, T/C [10]: 64%
viability, T/C [11]: 16.8%
viability, T/C [12]: 1.17%
viability, T/C [13]: 98.1%
viability, T/C [14]: 129%
viability, T/C [15]: 83.4%
viability, T/C [16]: 54%
viability, T/C [17]: 16.8%
viability, T/C [18]: 0.84%
viability, T/C [19]: 106%
viability, T/C [20]: 116%
viability, T/C [21]: 85.3%
viability, T/C [22]: 47.3%
viability, T/C [23]: 22%
viability, T/C [24]: 0.99%
viability, T/C [25]: 78%
viability, T/C [26]: 74.3%
viability, T/C [27]: 32%
viability, T/C [28]: 29.8%
viability, T/C [29]: 9.5%
viability, T/C [30]: 0.94%
viability, T/C [31]: 36.5%
viability, T/C [32]: 47.2%
viability, T/C [33]: 23.8%
viability, T/C [34]: 18.4%
viability, T/C [35]: 7.13%
viability, T/C [36]: 0.99%

C=CCn1c(=O)c2cnc(Nc3ccc(N4CCN(C)CC4)cc3)nc2n1-c1cccc(C(C)(C)O)n1 + Cc1cnc(CNC(=O)c2c(=O)c3ccc(N4CCCN(C)CC4)nc3n3c2sc2ccccc23)cn1
IC50 (second compound 0.0316 µM): 1.59 µM
IC50 (second compound 0.1 µM): 1.47 µM
IC50 (second compound 0.316 µM): 0.731 µM
IC50 (second compound 1 µM): 0.651 µM
IC50 (second compound 3.16 µM): 0.295 µM
IC50 (second compound 10 µM): < 0.0316 µM
viability, T/C [1]: 109%
viability, T/C [2]: 102%
viability, T/C [3]: 107%
viability, T/C [4]: 67.7%
viability, T/C [5]: 24.1%
viability, T/C [6]: 15.1%
viability, T/C [7]: 115%
viability, T/C [8]: 115%
viability, T/C [9]: 99.6%
viability, T/C [10]: 62.8%
viability, T/C [11]: 24.6%
viability, T/C [12]: 11.7%
viability, T/C [13]: 102%
viability, T/C [14]: 97.8%
viability, T/C [15]: 73.4%
viability, T/C [16]: 40.4%
viability, T/C [17]: 22.3%
viability, T/C [18]: 12.5%
viability, T/C [19]: 75.5%
viability, T/C [20]: 75.8%
viability, T/C [21]: 65.1%
viability, T/C [22]: 40.2%
viability, T/C [23]: 22.6%
viability, T/C [24]: 13.6%
viability, T/C [25]: 55.7%
viability, T/C [26]: 60.1%
viability, T/C [27]: 45.4%
viability, T/C [28]: 42%
viability, T/C [29]: 26.2%
viability, T/C [30]: 12.1%
viability, T/C [31]: 44.4%
viability, T/C [32]: 48.5%
viability, T/C [33]: 43.1%
viability, T/C [34]: 36.6%
viability, T/C [35]: 1.31%
viability, T/C [36]: 0.34%

CC1COCCN1c1cc(-c2ccnn2C)c2ccnc(-c3ccn[nH]3)c2n1 (stereo unspecified) + Cc1[nH]c2ccc(F)cc2c1-c1nc2c3cccnc3c3ncccc3c2[nH]1
IC50 (second compound 0.0316 µM): 0.659 µM
IC50 (second compound 0.1 µM): 0.506 µM
IC50 (second compound 0.316 µM): 0.4 µM
IC50 (second compound 1 µM): 0.46 µM
IC50 (second compound 3.16 µM): 0.04 µM
IC50 (second compound 10 µM): < 0.0316 µM
viability, T/C [1]: 83.8%
viability, T/C [2]: 82.6%
viability, T/C [3]: 73.3%
viability, T/C [4]: 36.4%
viability, T/C [5]: 27.5%
viability, T/C [6]: 20.9%
viability, T/C [7]: 79.3%
viability, T/C [8]: 85%
viability, T/C [9]: 56.5%
viability, T/C [10]: 37.3%
viability, T/C [11]: 24.2%
viability, T/C [12]: 19.7%
viability, T/C [13]: 103%
viability, T/C [14]: 77.5%
viability, T/C [15]: 49.4%
viability, T/C [16]: 37.7%
viability, T/C [17]: 30.5%
viability, T/C [18]: 17.6%
viability, T/C [19]: 87.2%
viability, T/C [20]: 79.3%
viability, T/C [21]: 59%
viability, T/C [22]: 31.9%
viability, T/C [23]: 21.5%
viability, T/C [24]: 18.8%
viability, T/C [25]: 52.9%
viability, T/C [26]: 38.6%
viability, T/C [27]: 12.8%
viability, T/C [28]: 8.91%
viability, T/C [29]: 4.88%
viability, T/C [30]: 4.03%
viability, T/C [31]: 35.6%
viability, T/C [32]: 23.9%
viability, T/C [33]: 9.76%
viability, T/C [34]: 5.71%
viability, T/C [35]: 3.51%
viability, T/C [36]: 2.86%
